Measurements as given in ChEMBL document CHEMBL1148889, “Biaryl cannabinoid mimetics--synthesis and structure-activity relationship” (Bioorg Med Chem Lett, 2007).
“And” between values parts separate entries of the source, which are not always exact repeats. Identical values can stand only once.

Biological target: Cannabinoid receptor (Homo sapiens) (UniProt P34972+P21554)
Experiment: Selectivity for human CB2 receptor over human CB1 receptor
Format: protein assay

Cannabinoid receptor (Homo sapiens), sequence (P21554 whole entry, looked up): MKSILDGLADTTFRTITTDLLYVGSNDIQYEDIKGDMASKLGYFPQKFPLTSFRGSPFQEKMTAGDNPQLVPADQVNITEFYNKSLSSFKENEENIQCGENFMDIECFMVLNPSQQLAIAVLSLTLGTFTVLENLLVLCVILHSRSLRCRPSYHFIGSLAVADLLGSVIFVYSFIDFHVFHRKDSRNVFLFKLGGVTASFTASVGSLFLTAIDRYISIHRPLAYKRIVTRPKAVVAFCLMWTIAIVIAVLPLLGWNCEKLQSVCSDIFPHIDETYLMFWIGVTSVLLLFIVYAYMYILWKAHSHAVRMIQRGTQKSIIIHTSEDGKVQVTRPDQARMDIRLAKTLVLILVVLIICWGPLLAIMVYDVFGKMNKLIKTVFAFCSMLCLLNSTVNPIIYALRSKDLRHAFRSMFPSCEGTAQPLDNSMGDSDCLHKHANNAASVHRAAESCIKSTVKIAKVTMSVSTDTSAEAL
Cannabinoid receptor (Homo sapiens), sequence (P34972 whole entry, looked up): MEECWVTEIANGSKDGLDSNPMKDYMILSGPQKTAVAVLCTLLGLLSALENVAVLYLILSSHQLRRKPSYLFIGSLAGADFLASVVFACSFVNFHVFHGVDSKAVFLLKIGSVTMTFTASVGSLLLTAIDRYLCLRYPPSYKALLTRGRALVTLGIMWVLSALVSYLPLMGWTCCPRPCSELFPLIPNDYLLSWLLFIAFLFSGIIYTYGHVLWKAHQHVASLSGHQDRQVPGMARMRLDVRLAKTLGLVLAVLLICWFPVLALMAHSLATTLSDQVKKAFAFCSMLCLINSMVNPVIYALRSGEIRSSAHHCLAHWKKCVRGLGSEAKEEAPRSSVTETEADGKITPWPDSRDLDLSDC

| Compound | Ratio Ki |
| --- | --- |
| CCCCCCC(C)(C)c1ccc(-c2cccc(OC)c2)c(O)c1 | 0.2 |
| CCCCCCC(C)(C)c1ccc(-c2cc(C)cc(C)c2)c(C(N)=O)c1 | 1 |
| CCCCCCC(C)(C)c1ccc(-c2cc(C)ccc2C)c(O)c1 | 0.7 |
| CCCCCCC(C)(C)c1ccc(-c2ccc(N)cc2)c(O)c1 | 0.3 |
| CCCCCCC(C)(C)c1ccc(-c2c(C)cccc2C)c(O)c1 | 0.1 |
| CCCCCCC(C)(C)c1ccc(-c2cc(C)cc(C)c2)c(OC)c1 | 9 |
| CCCCCCC(C)(C)c1ccc(-c2cccc(OC)c2OC)c(O)c1 | 4 |
| CNC(=O)CCCCC(C)(C)c1ccc(-c2cc(C)cc(C)c2)c(O)c1 | 2 |
| Cc1cc(C)cc(-c2ccc(C(C)(C)CO)cc2O)c1 | 4 |
| CCCCCCC(C)(C)c1ccc(-c2cccc(N)c2)c(O)c1 | 0.3 |
| CCCCCCC(C)(C)c1ccc(-c2cccnc2)c(O)c1 | 1 |
| CCCCCCC(C)(C)c1ccc(-c2cc(C)cc(C)c2)c(O)c1 | 1 |
| CCCCCCC(C)(C)c1ccc(-c2cc(C)cc(C)c2)c(CN)c1 | 4 |
| CNC(=O)CCC(C)(C)c1ccc(-c2cc(C)cc(C)c2)c(O)c1 | 6 |
| CCCCCCC1(c2ccc(-c3cc(C)cc(C)c3)c(O)c2)CC1 | 0.2 |
| CCCCCCC(C)(C)c1ccc(-c2cc(C)cc(C)c2)c(N)c1 | 2 |
| CCCCCCC(C)(C)c1ccc(-c2cccc(C#N)c2)c(O)c1 | 0.6 |

| Compound | Ratio Ki |
| --- | --- |
| Cc1cc(C)cc(-c2ccc(C(C)(C)CCCCCO)cc2O)c1 | 10 |
| CCCCCCC(C)(C)c1ccc(-c2ccccc2N)c(O)c1 | 0.3 |
| CCCCCCC(C)(C)c1ccc(-c2cc(C)cc(C)c2)c(C(=O)OC)c1 | 2 and 1 |
| CCCCCCC(C)(C)c1ccc(-c2cccc(C)c2C)c(O)c1 | 2 |
| CCCCCCC1(c2ccc(-c3cc(C)cc(C)c3)c(O)c2)CCCC1 | 0.5 |
| CCCCCCC(C)(C)c1ccc(-c2cc(C)cc(C)c2)c(COC(=O)CN2CCOCC2)c1 | 500 |
| CCCCCCC(C)(C)c1ccc(-c2cc(C)cc(C)c2)cc1 | > 10 |
| CCCCCCC(C)(C)c1ccc(-c2cc(C)cc(C)c2)c(CN2CCOCC2)c1 | 6 |
| COC(=O)C(C)(C)c1ccc(-c2cc(C)cc(C)c2)c(O)c1 | 10 |
| CCCCCCC(C)(C)c1ccc(-c2cc(C)cc(C)c2)c(CO)c1 | 0.8 |
| CCCCCCC(C)(C)c1ccc(-c2ccc(C)c(C)c2)c(O)c1 | 0.7 |
| COC(=O)CCCCC(C)(C)c1ccc(-c2cc(C)cc(C)c2)c(O)c1 | 2 |
| Cc1cc(C)cc(-c2ccc(C(C)(C)CCCO)cc2O)c1 | 20 |
| COC(=O)CCC(C)(C)c1ccc(-c2cc(C)cc(C)c2)c(O)c1 | 20 |
| CCCCCCC(C)(C)c1ccc(-c2ccccc2OC)c(O)c1 | 2 |
| CCCCCCC(C)(C)c1ccc(-c2ccc(OC)c(OC)c2)c(O)c1 | 0.8 |
| CCCCCCC1(c2ccc(-c3cc(C)cc(C)c3)c(O)c2)CCCCC1 | 1 |

Biological target: Cannabinoid receptor 2 (Homo sapiens, UniProt P34972)
Sequence (P34972 whole entry): as the sequence (P34972 whole entry, looked up) above
Experiment: Displacement of [3H]CP-55940 from cloned human CB2 receptor

| Compound | Ki [nM] |
| --- | --- |
| CCCCCCC(C)(C)c1ccc(-c2cccc(OC)c2)c(O)c1 | 580 |
| CCCCCCC(C)(C)c1ccc(-c2cc(C)cc(C)c2)c(C(N)=O)c1 | 320 |
| CCCCCCC(C)(C)c1ccc(-c2cc(C)ccc2C)c(O)c1 | 6.6 |
| CCCCCCC(C)(C)c1ccc(-c2ccc(N)cc2)c(O)c1 | 1000 |
| CCCCCCC(C)(C)c1ccc(-c2ccc(C#N)cc2)c(O)c1 | > 1000 |
| CCCCCCC(C)(C)c1ccc(-c2c(C)cccc2C)c(O)c1 | 18 |
| CCCCCCC(C)(C)c1ccc(-c2cc(C)cc(C)c2)c(OC)c1 | 34 |
| CCCCCCC(C)(C)c1ccc(-c2cccc(OC)c2OC)c(O)c1 | 7.8 |
| CNC(=O)CCCCC(C)(C)c1ccc(-c2cc(C)cc(C)c2)c(O)c1 | 39 |
| Cc1cc(C)cc(-c2ccc(C(C)(C)CO)cc2O)c1 | 600 |
| CCCCCCC(C)(C)c1ccc(-c2cccc(N)c2)c(O)c1 | 44 |
| CCCCCCC(C)(C)c1ccc(-c2cccnc2)c(O)c1 | 20 |
| CCCCCCC(C)(C)c1ccc(-c2cc(C)cc(C)c2)c(O)c1 | 2.3 |
| Cc1cc(C)cc(-c2ccc(C(C)(C)CCCCC(=O)O)cc2O)c1 | > 1000 |
| CNC(=O)C(C)(C)c1ccc(-c2cc(C)cc(C)c2)c(O)c1 | > 1000 |
| CCCCCCC(C)(C)c1ccc(-c2cc(C)cc(C)c2)c(CN)c1 | 380 |
| CNC(=O)CCC(C)(C)c1ccc(-c2cc(C)cc(C)c2)c(O)c1 | 140 |
| CCCCCCC1(c2ccc(-c3cc(C)cc(C)c3)c(O)c2)CC1 | 55 |
| CCCCCCC(C)(C)c1ccc(-c2cc(C)cc(C)c2)c(N)c1 | 51 |
| CCCCCCC(C)(C)c1ccc(-c2cccc(C#N)c2)c(O)c1 | 45 |

| Compound | Ki [nM] |
| --- | --- |
| Cc1cc(C)cc(-c2ccc(C(C)(C)CCCCCO)cc2O)c1 | 3.6 |
| CCCCCCC(C)(C)c1ccc(-c2ccccc2N)c(O)c1 | 17 |
| CCCCCCC(C)(C)c1ccc(-c2cccc(C)c2C)c(O)c1 | 20 |
| CCCCCCC1(c2ccc(-c3cc(C)cc(C)c3)c(O)c2)CCCC1 | 5.5 |
| CCCCCCC(C)(C)c1ccc(-c2cc(C)cc(C)c2)c(COC(=O)CN2CCOCC2)c1 | 0.81 |
| CCCCCCC(C)(C)c1ccc(-c2cc(C)cc(C)c2)c(CN2CCOCC2)c1 | 660 |
| CCCCCCC(C)(C)c1ccc(-c2cccc(C(=O)O)c2)c(O)c1 | > 1000 |
| CCCCCCC(C)(C)c1ccc(-c2cc(C)cc(C)c2)c(C(=O)O)c1 | > 1000 |
| COC(=O)C(C)(C)c1ccc(-c2cc(C)cc(C)c2)c(O)c1 | 16 |
| CCCCCCC(C)(C)c1ccc(-c2cc(C)cc(C)c2)c(CO)c1 | 480 |
| CCCCCCC(C)(C)c1ccc(-c2ccc(C)c(C)c2)c(O)c1 | 830 |
| CCCCCCC(C)(C)c1ccc(-c2cc(C)cc(C)c2)c(C(=O)NC(C)C)c1 | > 1000 |
| COC(=O)CCCCC(C)(C)c1ccc(-c2cc(C)cc(C)c2)c(O)c1 | 14 |
| Cc1cc(C)cc(-c2ccc(C(C)(C)CCCO)cc2O)c1 | 56 |
| COC(=O)CCC(C)(C)c1ccc(-c2cc(C)cc(C)c2)c(O)c1 | 5.6 |
| CCCCCCC(C)(C)c1ccc(-c2ccccc2OC)c(O)c1 | 1 |
| Cc1cc(C)cc(-c2ccc(C(C)(C)C(=O)O)cc2O)c1 | > 1000 |
| CCCCCCC(C)(C)c1ccc(-c2ccc(OC)c(OC)c2)c(O)c1 | 1700 |
| CCCCCCC1(c2ccc(-c3cc(C)cc(C)c3)c(O)c2)CCCCC1 | 1.7 |

Biological target: Cannabinoid receptor 1 (Homo sapiens, UniProt P21554)
Sequence (P21554 whole entry): as the sequence (P21554 whole entry, looked up) above
Experiment: Displacement of [3H]CP-55940 from cloned human CB1 receptor

| Compound | Ki [nM] |
| --- | --- |
| CCCCCCC(C)(C)c1ccc(-c2cccc(OC)c2)c(O)c1 | 91 |
| CCCCCCC(C)(C)c1ccc(-c2cc(C)cc(C)c2)c(C(N)=O)c1 | 370 |
| CCCCCCC(C)(C)c1ccc(-c2cc(C)ccc2C)c(O)c1 | 4.6 |
| CCCCCCC(C)(C)c1ccc(-c2ccc(N)cc2)c(O)c1 | 320 |
| CCCCCCC(C)(C)c1ccc(-c2ccc(C#N)cc2)c(O)c1 | > 1000 |
| CCCCCCC(C)(C)c1ccc(-c2c(C)cccc2C)c(O)c1 | 1.7 |
| CCCCCCC(C)(C)c1ccc(-c2cc(C)cc(C)c2)c(OC)c1 | 320 |
| CCCCCCC(C)(C)c1ccc(-c2cccc(OC)c2OC)c(O)c1 | 34 |
| CNC(=O)CCCCC(C)(C)c1ccc(-c2cc(C)cc(C)c2)c(O)c1 | 96 |
| Cc1cc(C)cc(-c2ccc(C(C)(C)CO)cc2O)c1 | 2200 |
| CCCCCCC(C)(C)c1ccc(-c2cccc(N)c2)c(O)c1 | 15 |
| CCCCCCC(C)(C)c1ccc(-c2cccnc2)c(O)c1 | 23 |
| CCCCCCC(C)(C)c1ccc(-c2cc(C)cc(C)c2)c(O)c1 | 2.7 |
| Cc1cc(C)cc(-c2ccc(C(C)(C)CCCCC(=O)O)cc2O)c1 | > 1000 |
| CNC(=O)C(C)(C)c1ccc(-c2cc(C)cc(C)c2)c(O)c1 | > 1000 |
| CCCCCCC(C)(C)c1ccc(-c2cc(C)cc(C)c2)c(CN)c1 | 1500 |
| CNC(=O)CCC(C)(C)c1ccc(-c2cc(C)cc(C)c2)c(O)c1 | 840 |
| CCCCCCC1(c2ccc(-c3cc(C)cc(C)c3)c(O)c2)CC1 | 13 |
| CCCCCCC(C)(C)c1ccc(-c2cc(C)cc(C)c2)c(N)c1 | 80 |
| CCCCCCC(C)(C)c1ccc(-c2cccc(C#N)c2)c(O)c1 | 27 |

| Compound | Ki [nM] |
| --- | --- |
| Cc1cc(C)cc(-c2ccc(C(C)(C)CCCCCO)cc2O)c1 | 39 |
| CCCCCCC(C)(C)c1ccc(-c2ccccc2N)c(O)c1 | 5.2 |
| CCCCCCC(C)(C)c1ccc(-c2cccc(C)c2C)c(O)c1 | 49 |
| CCCCCCC1(c2ccc(-c3cc(C)cc(C)c3)c(O)c2)CCCC1 | 2.9 |
| CCCCCCC(C)(C)c1ccc(-c2cc(C)cc(C)c2)c(COC(=O)CN2CCOCC2)c1 | 370 |
| CCCCCCC(C)(C)c1ccc(-c2cc(C)cc(C)c2)cc1 | > 30000 |
| CCCCCCC(C)(C)c1ccc(-c2cc(C)cc(C)c2)c(CN2CCOCC2)c1 | 3900 |
| CCCCCCC(C)(C)c1ccc(-c2cccc(C(=O)O)c2)c(O)c1 | > 1000 |
| CCCCCCC(C)(C)c1ccc(-c2cc(C)cc(C)c2)c(C(=O)O)c1 | > 1000 |
| COC(=O)C(C)(C)c1ccc(-c2cc(C)cc(C)c2)c(O)c1 | 160 |
| CCCCCCC(C)(C)c1ccc(-c2cc(C)cc(C)c2)c(CO)c1 | 360 |
| CCCCCCC(C)(C)c1ccc(-c2ccc(C)c(C)c2)c(O)c1 | 600 |
| CCCCCCC(C)(C)c1ccc(-c2cc(C)cc(C)c2)c(C(=O)NC(C)C)c1 | > 1000 |
| COC(=O)CCCCC(C)(C)c1ccc(-c2cc(C)cc(C)c2)c(O)c1 | 24 |
| Cc1cc(C)cc(-c2ccc(C(C)(C)CCCO)cc2O)c1 | 1100 |
| COC(=O)CCC(C)(C)c1ccc(-c2cc(C)cc(C)c2)c(O)c1 | 120 |
| CCCCCCC(C)(C)c1ccc(-c2ccccc2OC)c(O)c1 | 1.7 |
| Cc1cc(C)cc(-c2ccc(C(C)(C)C(=O)O)cc2O)c1 | > 1000 |
| CCCCCCC(C)(C)c1ccc(-c2ccc(OC)c(OC)c2)c(O)c1 | 1400 |
| CCCCCCC1(c2ccc(-c3cc(C)cc(C)c3)c(O)c2)CCCCC1 | 1.8 |
